Laboratory results from the NIST ThermoML archive (doi:10.1016/j.tca.2016.06.023).

Columns and labels:
[1] = refractive index (Na D-line) (dimensionless); xn = mol fraction of the nth substance listed; conditions: 81.5 kPa, Liquid, Standard Abbe refractometry
[2] = xn = mol fraction of the nth substance listed; conditions: 81.5 kPa, Liquid, Vibrating tube method

Brc1ccccc1 [bromobenzene] + Clc1ccccc1
Conditions | mass density, [2] [kg/m3] | refractive index, [1]
293.15 K, x2 = 0 | 1495.52 | 1.55981
293.15 K, x2 = 0.1004 | 1457.81 | 1.55614
293.15 K, x2 = 0.2188 | 1413.03 | 1.55183
293.15 K, x2 = 0.3025 | 1381.12 | 1.54881
293.15 K, x2 = 0.4005 | 1343.53 | 1.54531
293.15 K, x2 = 0.5003 | 1304.91 | 1.54178
293.15 K, x2 = 0.6014 | 1265.46 | 1.53824
293.15 K, x2 = 0.6985 | 1227.24 | 1.53488
293.15 K, x2 = 0.7976 | 1187.96 | 1.53149
293.15 K, x2 = 0.899 | 1147.37 | 1.52802
303.15 K, x2 = 0 | 1481.97 | 1.55442
303.15 K, x2 = 0.1004 | 1444.57 | 1.55075
303.15 K, x2 = 0.2188 | 1400.11 | 1.54645
303.15 K, x2 = 0.3025 | 1368.44 | 1.54341
303.15 K, x2 = 0.4004 | 1331.07 | 1.5399
303.15 K, x2 = 0.5002 | 1292.73 | 1.53635
303.15 K, x2 = 0.6014 | 1253.57 | 1.5328
303.15 K, x2 = 0.6985 | 1215.65 | 1.52943
303.15 K, x2 = 0.7975 | 1176.65 | 1.52602
303.15 K, x2 = 0.8989 | 1136.37 | 1.52252
313.15 K, x2 = 0 | 1468.41 | 1.5489
313.15 K, x2 = 0.1004 | 1431.29 | 1.54525
313.15 K, x2 = 0.2188 | 1387.2 | 1.54094
313.15 K, x2 = 0.3025 | 1355.72 | 1.53791
313.15 K, x2 = 0.4004 | 1318.65 | 1.53439
313.15 K, x2 = 0.5002 | 1280.55 | 1.53084
313.15 K, x2 = 0.6014 | 1241.67 | 1.52729
313.15 K, x2 = 0.6985 | 1204.01 | 1.52391
313.15 K, x2 = 0.7975 | 1165.32 | 1.52049
313.15 K, x2 = 0.8989 | 1125.28 | 1.51697
323.15 K, x2 = 0 | 1454.85 | 1.54319
323.15 K, x2 = 0.1004 | 1418.03 | 1.53956
323.15 K, x2 = 0.2188 | 1374.22 | 1.53528
323.15 K, x2 = 0.3025 | 1342.96 | 1.53225
323.15 K, x2 = 0.4004 | 1306.14 | 1.52874
323.15 K, x2 = 0.5002 | 1268.32 | 1.5252
323.15 K, x2 = 0.6014 | 1229.71 | 1.52165
323.15 K, x2 = 0.6985 | 1192.33 | 1.51827
323.15 K, x2 = 0.7975 | 1153.89 | 1.51484
323.15 K, x2 = 0.8989 | 1114.13 | 1.51133
333.15 K, x2 = 0 | 1441.22 | 1.53742
333.15 K, x2 = 0.1004 | 1404.71 | 1.53383
333.15 K, x2 = 0.2188 | 1361.19 | 1.52957
333.15 K, x2 = 0.3025 | 1330.15 | 1.52657
333.15 K, x2 = 0.4004 | 1293.58 | 1.52308
333.15 K, x2 = 0.5002 | 1256.04 | 1.51956
333.15 K, x2 = 0.6014 | 1217.71 | 1.51602
333.15 K, x2 = 0.6985 | 1180.59 | 1.51266
333.15 K, x2 = 0.7975 | 1142.42 | 1.50924
333.15 K, x2 = 0.8989 | 1102.93 | 1.50574
